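Cells were grown in 96-well plates and exposed to each compound for 48 hours at five concentrations; endpoints were interpolated linearly between bracketing concentrations, or set to the highest concentration if not reached. GI50 is the concentration that inhibits growth by half.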 Calls of active or inactive are those of the source. No stated cut-off is given here; in the data, active = GI50 up to about 1.1 µM and inactive = higher.
How the values were obtained:
Test in all cases: NCI-60 cell line screen, 48 h
[1] = tested on: 786-0
[2] = tested on: A498
[3] = tested on: A549
[4] = tested on: ACHN
[5] = tested on: BT-549
[6] = tested on: CAKI-1
[7] = tested on: CCRF-CEM
[8] = tested on: COLO 205
[9] = tested on: DU-145
[10] = tested on: EKVX
[11] = tested on: HCC 2998
[12] = tested on: HCT-116
[13] = tested on: HCT-15
[14] = tested on: HL-60
[15] = tested on: HOP-62
[16] = tested on: HOP-92
[17] = tested on: HT-29
[18] = tested on: Hs-578T
[19] = tested on: IGROV-1
[20] = tested on: K562
[21] = tested on: KM12
[22] = tested on: LOX IMVI
[23] = tested on: M14
[24] = tested on: MCF7
[25] = tested on: MDA-MB-231
[26] = tested on: MDA-MB-435
[27] = tested on: MDA-N
[28] = tested on: MOLT-4
[29] = tested on: NCI-H226
[30] = tested on: NCI-H23
[31] = tested on: NCI-H460
[32] = tested on: NCI/ADR-RES
[33] = tested on: OVCAR-3
[34] = tested on: OVCAR-4
[35] = tested on: OVCAR-5
[36] = tested on: OVCAR-8
[37] = tested on: PC-3
[38] = tested on: RPMI-8226
[39] = tested on: RXF 393
[40] = tested on: SF-268
[41] = tested on: SF-295
[42] = tested on: SF-539
[43] = tested on: SK-MEL-28
[44] = tested on: SK-MEL-2
[45] = tested on: SK-MEL-5
[46] = tested on: SK-OV-3
[47] = tested on: SN12C
[48] = tested on: SNB-19
[49] = tested on: SNB-75
[50] = tested on: SR
[51] = tested on: SW-620
[52] = tested on: T47D
[53] = tested on: TK-10
[54] = tested on: U-251
[55] = tested on: UACC-257
[56] = tested on: UACC-62
[57] = tested on: UO-31
[58] = tested on: Malme-3M
[59] = tested on: NCI-H522

## Cn1c(-c2ccccc2)cc(-c2ccsc2)c1-c1ccsc1
[1]
  GI50: > 100 µM (inactive)
[2]
  GI50: > 100 µM (inactive)
[3]
  GI50: > 100 µM (inactive)
[4]
  GI50: > 100 µM (inactive)
[5]
  GI50: > 100 µM (inactive)
[6]
  GI50: > 100 µM (inactive)
[7]
  GI50: 50 µM (inactive)
[8]
  GI50: > 100 µM (inactive)
[9]
  GI50: > 100 µM (inactive)
[10]
  GI50: > 100 µM (inactive)
[11]
  GI50: > 100 µM (inactive)
[12]
  GI50: 55.5 µM (inactive)
[13]
  GI50: > 100 µM
[14]
  GI50: 53.2 µM (inactive)
[15]
  GI50: 49.5 µM (inactive)
[16]
  GI50: > 100 µM (inactive)
[17]
  GI50: 67.3 µM (inactive)
[18]
  GI50: > 100 µM (inactive)
[19]
  GI50: > 100 µM (inactive)
[20]
  GI50: > 100 µM (inactive)
[21]
  GI50: > 100 µM (inactive)
[22]
  GI50: > 100 µM (inactive)
[23]
  GI50: > 100 µM (inactive)
[24]
  GI50: > 100 µM (inactive)
[25]
  GI50: > 100 µM (inactive)
[26]
  GI50: > 100 µM (inactive)
[27]
  GI50: > 100 µM (inactive)
[28]
  GI50: > 100 µM (inactive)
[29]
  GI50: 6.81 µM (inactive)
[30]
  GI50: > 100 µM (inactive)
[31]
  GI50: > 100 µM (inactive)
[32]
  GI50: > 100 µM (inactive)
[33]
  GI50: 34.3 µM (inactive)
[34]
  GI50: > 100 µM (inactive)
[35]
  GI50: > 100 µM (inactive)
[36]
  GI50: > 100 µM (inactive)
[37]
  GI50: > 100 µM (inactive)
[38]
  GI50: > 100 µM (inactive)
[39]
  GI50: 33.3 µM (inactive)
[40]
  GI50: > 100 µM (inactive)
[41]
  GI50: > 100 µM (inactive)
[42]
  GI50: 95.5 µM (inactive)
[43]
  GI50: > 100 µM (inactive)
[44]
  GI50: > 100 µM (inactive)
[45]
  GI50: > 100 µM (inactive)
[46]
  GI50: 95.7 µM (inactive)
[47]
  GI50: > 100 µM (inactive)
[48]
  GI50: 17.2 µM (inactive)
[49]
  GI50: > 100 µM (inactive)
[50]
  GI50: 9.66 µM (inactive)
[51]
  GI50: > 100 µM (inactive)
[52]
  GI50: > 100 µM (inactive)
[53]
  GI50: > 100 µM (inactive)
[54]
  GI50: > 100 µM (inactive)
[55]
  GI50: > 100 µM (inactive)
[56]
  GI50: > 100 µM (inactive)
[57]
  GI50: > 100 µM (inactive)

## CCCC#CC(O)(C(=O)OC1CCN(C)CC1)C1CCCCC1 (stereo not given)
[1]
  GI50: > 100 µM (inactive)
[2]
  GI50: 94.6 µM (inactive)
[3]
  GI50: > 100 µM (inactive)
[4]
  GI50: > 100 µM (inactive)
[5]
  GI50: 88.7 µM (inactive)
[6]
  GI50: > 100 µM (inactive)
[7]
  GI50: > 100 µM (inactive)
[8]
  GI50: 94.6 µM (inactive)
[9]
  GI50: > 100 µM (inactive)
[10]
  GI50: > 100 µM (inactive)
[11]
  GI50: > 100 µM (inactive)
[12]
  GI50: > 100 µM (inactive)
[13]
  GI50: > 100 µM
[15]
  GI50: 52 µM (inactive)
[16]
  GI50: 85.7 µM (inactive)
[17]
  GI50: 55.2 µM (inactive)
[18]
  GI50: 14.1 µM (inactive)
[19]
  GI50: > 100 µM (inactive)
[20]
  GI50: > 100 µM (inactive)
[21]
  GI50: > 100 µM (inactive)
[22]
  GI50: > 100 µM (inactive)
[23]
  GI50: 58.6 µM (inactive)
[24]
  GI50: > 100 µM (inactive)
[25]
  GI50: > 100 µM (inactive)
[26]
  GI50: > 100 µM (inactive)
[27]
  GI50: > 100 µM (inactive)
[28]
  GI50: 91.6 µM (inactive)
[58]
  GI50: > 100 µM (inactive)
[29]
  GI50: 94.4 µM (inactive)
[30]
  GI50: > 100 µM (inactive)
[31]
  GI50: > 100 µM (inactive)
[32]
  GI50: > 100 µM (inactive)
[33]
  GI50: > 100 µM (inactive)
[34]
  GI50: > 100 µM (inactive)
[35]
  GI50: > 100 µM (inactive)
[36]
  GI50: > 100 µM (inactive)
[37]
  GI50: 48.3 µM (inactive)
[38]
  GI50: > 100 µM (inactive)
[39]
  GI50: > 100 µM (inactive)
[40]
  GI50: > 100 µM (inactive)
[41]
  GI50: > 100 µM (inactive)
[42]
  GI50: > 100 µM (inactive)
[43]
  GI50: > 100 µM (inactive)
[44]
  GI50: > 100 µM (inactive)
[45]
  GI50: 38.9 µM (inactive)
[46]
  GI50: > 100 µM (inactive)
[47]
  GI50: > 100 µM (inactive)
[48]
  GI50: > 100 µM (inactive)
[49]
  GI50: 57 µM (inactive)
[50]
  GI50: > 100 µM (inactive)
[51]
  GI50: > 100 µM (inactive)
[52]
  GI50: > 100 µM (inactive)
[53]
  GI50: > 100 µM (inactive)
[54]
  GI50: > 100 µM (inactive)
[55]
  GI50: 46.6 µM (inactive)
[56]
  GI50: > 100 µM (inactive)
[57]
  GI50: 29 µM (inactive)

## CCOC(=O)CCC(NC(=O)c1ccc(Nc2nc3ccccc3n3cccc23)cc1)C(=O)OCC (stereo not given)
[1]
  GI50: 17 µM (inactive)
[2]
  GI50: 70.1 µM (inactive)
[3]
  GI50: 39.6 µM (inactive)
[4]
  GI50: 20.6 µM (inactive)
[5]
  GI50: 23.3 µM (inactive)
[6]
  GI50: 33.6 µM (inactive)
[7]
  GI50: 54.8 µM (inactive)
[8]
  GI50: 53.8 µM (inactive)
[9]
  GI50: 28.9 µM (inactive)
[10]
  GI50: 41.5 µM (inactive)
[11]
  GI50: 29.8 µM (inactive)
[12]
  GI50: 31.2 µM (inactive)
[13]
  GI50: 29.7 µM
[14]
  GI50: > 100 µM (inactive)
[15]
  GI50: 23.7 µM (inactive)
[16]
  GI50: 32.1 µM (inactive)
[17]
  GI50: 17.9 µM (inactive)
[18]
  GI50: 35.6 µM (inactive)
[19]
  GI50: 35.5 µM (inactive)
[20]
  GI50: 38.5 µM (inactive)
[21]
  GI50: 31.1 µM (inactive)
[22]
  GI50: 26.1 µM (inactive)
[23]
  GI50: 51.6 µM (inactive)
[24]
  GI50: 16.6 µM (inactive)
[25]
  GI50: 21.5 µM (inactive)
[26]
  GI50: 30.2 µM (inactive)
[27]
  GI50: 28.4 µM (inactive)
[28]
  GI50: 18.3 µM (inactive)
[58]
  GI50: 37.2 µM (inactive)
[30]
  GI50: 35.9 µM (inactive)
[31]
  GI50: 28.7 µM (inactive)
[59]
  GI50: 22.9 µM (inactive)
[32]
  GI50: 19.5 µM (inactive)
[33]
  GI50: 18.2 µM (inactive)
[35]
  GI50: 45.6 µM (inactive)
[36]
  GI50: 19.6 µM (inactive)
[37]
  GI50: 16.4 µM (inactive)
[38]
  GI50: 23.1 µM (inactive)
[39]
  GI50: 12.2 µM (inactive)
[40]
  GI50: 37.8 µM (inactive)
[41]
  GI50: 25.2 µM (inactive)
[42]
  GI50: 18.8 µM (inactive)
[43]
  GI50: 47.6 µM (inactive)
[44]
  GI50: 20 µM (inactive)
[45]
  GI50: 31 µM (inactive)
[46]
  GI50: 24.1 µM (inactive)
[48]
  GI50: 42.1 µM (inactive)
[49]
  GI50: 26.7 µM (inactive)
[50]
  GI50: 15.3 µM (inactive)
[51]
  GI50: 81.7 µM (inactive)
[52]
  GI50: < 0.01 µM (active)
[53]
  GI50: 22.5 µM (inactive)
[54]
  GI50: 23 µM (inactive)
[55]
  GI50: 26.2 µM (inactive)
[56]
  GI50: 23.1 µM (inactive)
[57]
  GI50: 44.9 µM (inactive)
